Source: US20240239775A1, “FXR REGULATOR, PREPARATION METHOD THEREFOR, PHARMACEUTICAL COMPOSITION THEREOF AND USE THEREOF” (QINGDAO RUIJI MEDICAL TECHNOLOGY CO., LTD., priority 2021, published 2024)

Target: T1, FXR (Homo sapiens, UniProt Q96RI1)
T1 construct: 5 μL of 20 nM FXR-LBD Complete Coregulator buffer G; purchased ThermoFisher PV4833
T1 sequence (Q96RI1 262-486 limits assumed): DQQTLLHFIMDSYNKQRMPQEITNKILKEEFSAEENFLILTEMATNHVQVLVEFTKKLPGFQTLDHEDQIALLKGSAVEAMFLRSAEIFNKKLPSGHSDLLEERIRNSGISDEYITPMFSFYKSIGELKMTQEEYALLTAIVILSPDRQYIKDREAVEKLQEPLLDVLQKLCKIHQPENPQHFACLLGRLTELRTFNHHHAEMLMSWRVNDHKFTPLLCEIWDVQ
Experiment: FXR antagonist screening by TR-FRET (LanthaScreen TR-FRET FXR co-activation assay kit)
Assay type: biochemical
Settings: Table 1.1, FXR antagonistic activity; TR-FRET with CDCA; geometric means of at least two independent runs
Method in brief: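 FXR-LBD (20 nM working solution) mixed with compound, CDCA (200 μM working solution) as agonist, Fluorescein-SRC2-2 and Tb-anti-GST antibody in Coregulator buffer G; 10 h at room temperature. Coactivator recruitment read by TR-FRET, triplicate wells.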

SMILES	IC50 [µM]
CCOC(=O)c1oc2ccc(S(=O)(=O)N(CCc3ccccc3)Cc3ccc(N4CCN(C(=O)OC(C)(C)C)CC4)cc3)cc2c1C [Example M8-81, ethyl 3-methyl-5-(N-(4-(4-(tert-butoxycarbonyl)piperazin-1-yl)benzyl)-N-phenethylsulfamoyl)benzofuran-2-carboxylate]	50 to 100
CCOC(=O)c1oc2ccc(S(=O)(=O)N(CCc3ccccc3)Cc3ccc(Oc4ccccc4)cc3)cc2c1C [Example M8-86, ethyl 3-methyl-5-(N-phenethyl-N-(4-phenoxybenzyl)sulfamoyl)benzofuran-2-carboxylate]	50 to 100
CCOC(=O)c1oc2ccc(S(=O)(=O)N(CCc3ccccc3)Cc3ccccc3N3CCN(C(=O)OC(C)(C)C)CC3)cc2c1C [Example M8-87, ethyl 3-methyl-5-(N-(2-(4-(tert-butoxycarbonyl)piperazin-1-yl)benzyl)-N-phenethylsulfamoyl)benzofuran-2-carboxylate]	50 to 100
CCOC(=O)c1oc2ccc(S(=O)(=O)N(CCc3ccccc3)Cc3cccc(N4CCN(C(=O)OC(C)(C)C)CC4)c3)cc2c1C [Example M8-88, ethyl 3-methyl-5-(N-(3-(4-(tert-butoxycarbonyl)piperazin-1-yl)benzyl)-N-phenethylsulfamoyl)benzofuran-2-carboxylate]	50 to 100
CCOC(=O)c1oc2ccc(S(=O)(=O)N(CCc3ccccc3)c3ccccc3N3CCNCC3)cc2c1C [Example M9-1, ethyl 3-methyl-5-(N-phenethyl-N-(2-(piperazin-1-yl)phenyl)sulfamoyl)benzofuran-2-carboxylate]	50 to 100
CCOC(=O)c1oc2ccc(S(=O)(=O)N(CCc3ccccc3)Cc3ccccc3N3CCNCC3)cc2c1C [Example M9-2, ethyl 3-methyl-5-(N-phenethyl-N-(2-(piperazin-1-yl)benzyl)sulfamoyl)benzofuran-2-carboxylate]	50 to 100
CCOC(=O)c1oc2ccc(S(=O)(=O)N(CCc3ccccc3)c3ccccc3N3CC[N+](C)(C)CC3)cc2c1C [Example M10-90, 4-(2-((2-(ethoxycarbonyl)-3-methyl-N-phenethylbenzofuran)-5-sulfonylamino)phenyl)-1,1-dimethylpiperazin-1-ium]	50 to 100
CCOC(=O)c1oc2ccc(S(=O)(=O)N(CCc3ccccc3)c3ccccc3N3CCN(C(C)=O)CC3)cc2c1C [Example M10-91, ethyl 3-methyl-5-(N-(2-(4-acetylpiperazin-1-yl)phenyl)-N-phenethylsulfamoyl)benzofuran-2-carboxylate]	50 to 100
CCOC(=O)c1oc2ccc(S(=O)(=O)N(CCc3ccccc3)c3ccccc3N3CCN(S(C)(=O)=O)CC3)cc2c1C [Example M10-93, ethyl 3-methyl-5-(N-(2-(4-(methylsulfonyl)piperazin-1-yl)phenyl)-N-phenethylsulfamoyl)benzofuran-2-carboxylate]	50 to 100
CCOC(=O)c1oc2ccc(S(=O)(=O)N(CCc3ccccc3)c3ccccc3N3CCN(C(=O)CC(C)(C)C)CC3)cc2c1C [Example M10-94]	50 to 100
CCOC(=O)c1oc2ccc(S(=O)(=O)N(CCc3ccccc3)c3ccccc3N3CCN(Cc4ccccc4)CC3)cc2c1C [Example M10-95]	50 to 100
CCOC(=O)c1oc2ccc(S(=O)(=O)N(CCc3ccccc3)c3ccccc3N3CCN(C(=O)c4ccccc4)CC3)cc2c1C [Example M10-96]	50 to 100
CCOC(=O)c1oc2ccc(S(=O)(=O)N(CCc3ccccc3)Cc3ccccc3N3CCN(C)CC3)cc2c1C [Example M10-98, ethyl 3-methyl-5-(N-(2-(4-methylpiperazin-1-yl)benzyl)-N-phenethylsulfamoyl)benzofuran-2-carboxylate]	50 to 100
CCOC(=O)c1oc2ccc(S(=O)(=O)N(CCc3ccccc3)Cc3ccccc3N3CC[N+](C)(C)CC3)cc2c1C [Example M10-99, 4-(2-((2-(ethoxycarbonyl)-3-methyl-N-benzylethylbenzofuran)-5-sulfonylamino)phenyl)-1,1-dimethylpiperazin-1-ium]	50 to 100
CCOC(=O)c1oc2ccc(S(=O)(=O)N(CCc3ccccc3)Cc3ccccc3N3CCN(C(C)=O)CC3)cc2c1C [Example M10-100, ethyl 3-methyl-5-(N-(2-(4-acetylpiperazin-1-yl)benzyl)-N-phenethylsulfamoyl)benzofuran-2-carboxylate]	50 to 100
CCOC(=O)c1oc2ccc(S(=O)(=O)N(CCc3ccccc3)Cc3ccccc3N3CCN(S(C)(=O)=O)CC3)cc2c1C [Example M10-102, ethyl 3-methyl-5-(N-(2-(4-methanesulfonylpiperazin-1-yl)benzyl)-N-phenethylsulfamoyl)benzofuran-2-carboxylate]	50 to 100
CCOC(=O)c1oc2ccc(S(=O)(=O)N(CCc3ccccc3)Cc3ccccc3N3CCN(C(=O)CC(C)(C)C)CC3)cc2c1C [Example M10-103, ethyl 3-methyl-5-(N-(2-(4-(3,3-dimethylbutyryl)piperazin-1-yl)benzyl)-N-phenethylsulfamoyl)benzofuran-2-carboxylate]	50 to 100
CCOC(=O)c1oc2ccc(S(=O)(=O)N(CCc3ccccc3)Cc3ccccc3N3CCN(Cc4ccccc4)CC3)cc2c1C [Example M10-104, ethyl 3-methyl-5-(N-(2-(4-benzylpiperazin-1-yl)benzyl)-N-phenethylsulfamoyl)benzofuran-2-carboxylate]	50 to 100
CCOC(=O)c1oc2ccc(S(=O)(=O)N(CCc3ccccc3)Cc3ccccc3N3CCN(C(=O)c4ccccc4)CC3)cc2c1C [Example M10-105, ethyl 3-methyl-5-(N-(2-(4-benzoylpiperazin-1-yl)benzyl)-N-phenethylsulfamoyl)benzofuran-2-carboxylate]	50 to 100

Same assay, conditions: Table 1.2, FXR antagonistic activity; TR-FRET with CDCA; geometric means of at least two independent runs

SMILES	IC50 [µM]
CCOC(=O)c1oc2ccc(S(=O)(=O)N(CCc3ccccc3)c3ccccc3N3CCN(C(=O)c4ccc(C)cc4)CC3)cc2c1C [Example M10-106, ethyl 3-methyl-5-(N-(2-(4-(4-methylbenzoyl)piperazin-1-yl)phenyl)-N-phenethylsulfamoyl)benzofuran-2-carboxylate]	50 to 100
CCOC(=O)c1oc2ccc(S(=O)(=O)N(CCc3ccccc3)c3ccccc3N3CCN(C(=O)c4ccccc4C)CC3)cc2c1C [Example M10-107, Ethyl 3-methyl-5-(N-(2-(4-(2-methylbenzoyl)piperazin-1-yl)phenyl)-N-phenethylsulfamoyl)benzofuran-2-carboxylate]	50 to 100
CCOC(=O)c1oc2ccc(S(=O)(=O)N(CCc3ccccc3)c3ccccc3N3CCN(C(=O)c4cccc(C)c4)CC3)cc2c1C [Example M10-108, ethyl 3-methyl-5-(N-(2-(4-(3-methylbenzoyl)piperazin-1-yl)phenyl)-N-phenethylsulfamoyl)benzofuran-2-carboxylate]	50 to 100
CCOC(=O)c1oc2ccc(S(=O)(=O)N(CCc3ccccc3)c3ccccc3N3CCN(C(=O)c4ccc(NC(C)=O)cc4)CC3)cc2c1C [Example M10-109, Ethyl 5-(N-(2-(4-(4-Acetylaminobenzoyl)piperazin-1-yl)phenyl)-N-phenethylsulfamoyl)-3-methyl benzofuran-2-carboxylate]	50 to 100
CCOC(=O)c1oc2ccc(S(=O)(=O)N(CCc3ccccc3)c3ccccc3N3CCN(C(=O)c4ccc(C(F)(F)F)cc4)CC3)cc2c1C [Example M10-110]	50 to 100
CCOC(=O)c1oc2ccc(S(=O)(=O)N(CCc3ccccc3)c3ccccc3N3CCN(C(=O)c4ccc(C#N)cc4)CC3)cc2c1C [Example M10-111]	50 to 100
CCOC(=O)c1oc2ccc(S(=O)(=O)N(CCc3ccccc3)c3ccccc3N3CCN(C(=O)c4ccc(F)cc4)CC3)cc2c1C [Example M10-112, Ethyl 5-(N-(2-(4-(4-fluorobenzoyl)piperazin-1-yl)phenyl)-N-phenethylsulfamoyl)-3-methylbenzofuran-2-carboxylate]	50 to 100
CCOC(=O)c1oc2ccc(S(=O)(=O)N(CCc3ccccc3)c3ccccc3N3CCN(C(=O)c4ccc(NC(=O)OC(C)(C)C)cc4)CC3)cc2c1C [Example M10-113, Ethyl-(N-(2-(4-(4-((tert-butoxycarbonyl)amino)benzoyl)piperazin-1-yl)phenyl)-N-phenethylsulfamoyl)-3-methylbenzofuran-2-carboxylate]	50 to 100
CCOC(=O)c1oc2ccc(S(=O)(=O)N(CCc3ccccc3)c3ccccc3N3CCN(C(=O)c4ccc([N+](=O)[O-])cc4)CC3)cc2c1C [Example M10-114, Ethyl 3-methyl-5-(N-(2-(4-(4-nitrobenzoyl)piperazin-1-yl)phenyl)-N-phenethylsulfamoyl)benzofuran-2-carboxylate]	50 to 100
CCOC(=O)c1oc2ccc(S(=O)(=O)N(CCc3ccccc3)c3ccccc3N3CCN(C(=O)c4ccc(C(C)=O)cc4)CC3)cc2c1C [Example M10-115, Ethyl 5-(N-(2-(4-(4-acetylbenzoyl)piperazin-1-yl)phenyl)-N-phenethylsulfamoyl)-3-methylbenzofuran-2-carboxylate]	50 to 100
CCOC(=O)c1oc2ccc(S(=O)(=O)N(CCc3ccccc3)c3ccccc3N3CCN(C(=O)c4cccnc4)CC3)cc2c1C [Example M10-116, Ethyl 3-methyl-5-(N-(2-(4-nicotinoylpiperazin-1-yl)phenyl)-N-phenethylsulfamoyl)benzofuran-2-carboxylate]	50 to 100
CCOC(=O)c1oc2ccc(S(=O)(=O)N(CCc3ccccc3)c3ccccc3N3CCN(C(=O)c4ccccn4)CC3)cc2c1C [Example M10-117, ethyl 3-methyl-5-(N-phenethyl-N-(2-(4-pyridineformylpiperazin-1-yl)phenyl)sulfamoyl)benzofuran-2-carboxylate]	50 to 100
